According to PMC11887385 (Virology Journal, 2025):
Values belong to the compound of their own block, whether it stands above or below them.

Experiments:
HIV-1NL4-3 [1] = test: Time-of-addition; assay type: cell-based; conditions: TZM-bl, MOI 0.5, read at 48 h
HIV-1NL4-3 [2] = test: Antiviral activity, TZM-bl reporter cells, F-Luc; assay type: cell-based; conditions: Human immunodeficiency virus 1, TZM-bl
HIV-1JRCSF [3] = test: Antiviral activity, TZM-bl reporter cells, F-Luc; assay type: cell-based; conditions: Human immunodeficiency virus 1, TZM-bl, read-out: EC50 (1:5 dilution)
HIV-1 89.6 = test: Antiviral activity, TZM-bl reporter cells, F-Luc; assay type: cell-based; conditions: Human immunodeficiency virus 1, TZM-bl, read-out: EC50 (1:5 dilution)
HIV-1NL4-3 [4] = test: Viral replication in A3.01 T cells, p24 […]; assay type: cell-based; conditions: Human immunodeficiency virus 1, NL43, T-cell, read-out: EC50 (1:5 dilution)
HIV-1NL4-3 [5] = test: Viral replication in PBMCs, p24 […]; assay type: cell-based; conditions: Human immunodeficiency virus 1, NL43, PBMC, read-out: EC50 (1:5 dilution)
HIV-1JRCSF [6] = test: Viral replication in PBMCs, p24 […]; assay type: cell-based; conditions: Human immunodeficiency virus 1, PBMC, read-out: EC50 (1:5 dilution)
Cell viability test [7] = assay type: cell-based; conditions: human, TZM-bl cells, CC50 (1:5 dilution)
TZM-bl cells = test: Cell viability test; assay type: cell-based; conditions: 48 h
Cell viability test [8] = assay type: cell-based, human; conditions: human, A3.01 cells
A3.01 cells = test: Cell viability test; assay type: cell-based, human; conditions: A3.01
Cell viability test [9] = assay type: cell-based; conditions: human, PBMCs
PBMCs = test: Cell viability test; assay type: cell-based
[10] = test system: HIV-1NL4-3-IRES-GFP proviral DNA; assay type: cell-based; conditions: HEK293T, 48 h
recombinant HIV-1 RTase = recombinant HIV-1 RTase (Human immunodeficiency virus type 1 group M subtype B, UniProt P04585); test: In vitro RTase assay; assay type: biochemical; conditions: IC50 against RTase, 0.5 unit RTase, 1 h, 24 °C
HIV-1 integrase = HIV-1 integrase (Human immunodeficiency virus type 1 group M subtype B, UniProt P04585); test: HIV-1 integrase assay kit; assay type: biochemical; conditions: 10 µM
[11] = test system: HIV-1NL4-3 early and late RT products; test: HIV-1 reverse transcripts in infected A3.01 cells, RT-qPCR; assay type: cell-based; conditions: A3.01, 1 μM, 6 h
[12] = test system: HIV-1NL4-3 integrated proviral DNA; test: Integrated proviral DNA in infected A3.01 cells, Alu-PCR; assay type: cell-based; conditions: A3.01, 1 μM
[13] = test system: Tat-mediated viral transcription of LTR; test: Tat-mediated LTR transcription in bl-DTR cells; assay type: cell-based, HIV-1; conditions: doxycycline, 24 h
[14] = test system: HIV-1 7406 (190C; 41L/69S*/74 V/184 V/210W/215Y); test: Antiviral activity on resistant variant, TZM-bl F-Luc; assay type: cell-based; conditions: Human immunodeficiency virus 1, TZM-bl
[15] = test system: HIV-1 7407 (103N; 70R/115F); test: as above; assay type: cell-based; conditions: Human immunodeficiency virus 1, TZM-bl
[16] = test system: HIV-1 12,227 (101P/103N; 41L/215Y); test: as above; assay type: cell-based; conditions: Human immunodeficiency virus 1, TZM-bl
[17] = test system: HIV-1 12,231 (103N/179F/181C; 41L/215F); test: as above; assay type: cell-based; conditions: Human immunodeficiency virus 1, TZM-bl
[18] = test system: HIV-1 12,241 (101E/138G/190S); test: as above; assay type: cell-based; conditions: Human immunodeficiency virus 1, TZM-bl
[19] = test system: HIV-1 12,243 (100I/179D/230L; 41L/67G/74I); test: as above; assay type: cell-based; conditions: Human immunodeficiency virus 1, TZM-bl
HIV-1 L100I = test: Antiviral activity on single RT mutant, TZM-bl F-Luc; assay type: cell-based; conditions: Human immunodeficiency virus 1, TZM-bl
HIV-1 K101P = test: as above; assay type: cell-based; conditions: Human immunodeficiency virus 1, TZM-bl
HIV-1 K103N = test: as above; assay type: cell-based; conditions: Human immunodeficiency virus 1, TZM-bl
HIV-1 G190A = test: as above; assay type: cell-based; conditions: Human immunodeficiency virus 1, TZM-bl
HIV-1 G190C = test: as above; assay type: cell-based; conditions: Human immunodeficiency virus 1, TZM-bl
HIV-1 G190S = test: as above; assay type: cell-based; conditions: Human immunodeficiency virus 1, TZM-bl

Compound: Enfuvirtide [T20]
time postinfection of addition at which the inhibitory effect disappeared (HIV-1NL4-3 [1]): 1 h

Compound: C[C@@H]1CCO[C@H]2Cn3cc(C(=O)NCc4ccc(F)cc4F)c(=O)c(O)c3C(=O)N12 [DTG, Dolutegravir]
time postinfection of addition at which the inhibitory effect disappeared (HIV-1NL4-3 [1]): 8 h

EC50 (HIV-1NL4-3 [2]; 48 h): 8480 nM
Compound: O=C(Nc1ccc(S(=O)(=O)O)c2ccccc12)c1ccc(=O)oc1 [compound 1, 4-(2-oxo-2H-pyran-5-carboxamido)naphthalene-1-sulfonic acid]

Compound: Cc1nnc(C(=O)NC(C)(C)c2nc(C(=O)NCc3ccc(F)cc3)c(O)c(=O)n2C)o1 [RAL, raltegravir]
time postinfection of addition at which the inhibitory effect disappeared (HIV-1NL4-3 [1]): 8 h

EC50 (HIV-1NL4-3 [2]; 48 h): 6390 nM
Compound: COc1cccc(C=NNC(=S)NN)c1OC [compound 4, 1-amino-3-[(2,3-dimethoxyphenyl)methylideneamino]thiourea]

EC50 (HIV-1NL4-3 [2]): 0.7 nM
Compound: Cc1cc(/C=C/C#N)cc(C)c1Nc1ccnc(Nc2ccc(C#N)cc2)n1 [RPV, rilpivirine]

Compound: Cc1nn(C(C)c2nnc(Nc3ccn(Cc4ccccc4)n3)s2)c(C)c1Br (stereo not shown) [BPPT, N-(1-benzyl-1H-pyrazol-3-yl)-5-[1-(4-bromo-3,5-dimethyl-1H-pyrazol-1-yl)ethyl]-1,3,4-thiadiazol-2-amine]
EC50 (HIV-1NL4-3 [2]): 60 nM
EC50 (HIV-1JRCSF [3]): 160 ± 10 nM
EC50 (HIV-1 89.6): 90 nM
EC50 (HIV-1NL4-3 [4]): 160 ± 20 nM
EC50 (HIV-1NL4-3 [5]): 80 ± 10 nM
EC50 (HIV-1JRCSF [6]): 40 ± 30 nM
CC50 (Cell viability test [7]): > 50000 nM
no (severe) cytotoxicity up to (TZM-bl cells): > 250 µM
CC50 (Cell viability test [8]): > 50000 nM
no cytotoxicity up to (A3.01 cells): > 50 µM
CC50 (Cell viability test [9]): > 50000 nM
no cytotoxicity up to (PBMCs): > 50 µM
GFP signal and level of p24 in the supernatant from transfected cells [10]: not inhibited
IC50 (recombinant HIV-1 RTase): 140 nM
integrase activity (HIV-1 integrase): did not affect
time postinfection of addition at which the inhibitory effect disappeared (HIV-1NL4-3 [1]): 6 h
synthesis of viral cDNA, early and late stages of RT [11]: greatly inhibited
integrated proviral DNA [12]: low level of integrated proviral DNA
Tat-mediated viral transcription of LTR [13]: did not inhibit
EC50 [14]: 350 ± 40 nM
EC50 [15]: 19700 ± 1600 nM
EC50 [16]: > 50000 nM
EC50 [17]: > 50000 nM
EC50 [18]: 4570 ± 2300 nM
EC50 [19]: > 50000 nM
EC50 (HIV-1 L100I): 3500 ± 650 nM
EC50 (HIV-1 K101P): 1710 ± 30 nM
EC50 (HIV-1 K103N): 880 ± 120 nM
EC50 (HIV-1 G190A): 70 nM
EC50 (HIV-1 G190C): 290 ± 30 nM
EC50 (HIV-1 G190S): 280 ± 50 nM
